According to US11053204B2, “Pyrimidinyloxy benzene derivatives as herbicides” (FMC Corporation, priority 2015, dated 2021):

Key:
Experiment in all cases: Test C postemergence, plant response rating
Type in all cases: in vivo
[1] = test system: wild mustard (Sinapis arvensis); settings: for Mustard, Wild plant response rating: scale 0 to 100 (0 no effect, 100 complete control)
Outline: (§1)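 Visual injury score, 0 = no effect, 100 = complete control, assigned against untreated controls after 13 to 15 d in the greenhouse. Compounds were applied in a surfactant-containing non-phytotoxic solvent mix, preemergence to seeded loam/sand or silt loam soil, or postemergence to 1- to 4-leaf plants (2 to 18 cm).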

[2] = test system: geranium, cutleaf (cutleaf geranium, Geranium dissectum); settings: for Geranium, Cutleaf plant response rating: scale 0 to 100 (0 no effect, 100 complete control)
Outline: as §1

[3] = test system: wild poinsettia (Euphorbia heterophylla); settings: for Poinsettia, Wild plant response rating: scale 0 to 100 (0 no effect, 100 complete control)
Outline: as §1

[4] = test system: field violet (Viola arvensis); settings: for Field Violet plant response rating: scale 0 to 100 (0 no effect, 100 complete control)
Outline: as §1

[5] = test system: surinam grass (Brachiaria decumbens)
Outline: as §1

[6] = test system: johnsongrass (Sorghum halepense); settings: for Johnsongrass plant response rating: scale 0 to 100 (0 no effect, 100 complete control)
Outline: as §1

[7] = test system: Canada thistle (Cirsium arvense); settings: for Canada Thistle plant response rating: scale 0 to 100 (0 no effect, 100 complete control)
Outline: as §1

[8] = test system: speedwell (bird's-eye speedwell, Veronica persica); settings: for Speedwell plant response rating: scale 0 to 100 (0 no effect, 100 complete control)
Outline: as §1

[9] = test system: buckwheat, wild (wild buckwheat, Polygonum convolvulus); settings: for Buckwheat, Wild plant response rating: scale 0 to 100 (0 no effect, 100 complete control)
Outline: as §1

[10] = test system: windgrass (Apera spica-venti)
Outline: as §1

[11] = test system: pigweed, palmer (palmer pigweed, Amaranthus palmeri); settings: for Pigweed, Palmer plant response rating: scale 0 to 100 (0 no effect, 100 complete control)
Outline: as §1

[12] = test system: nightshade (eastern black nightshade, Solanum ptycanthum); settings: for Nightshade plant response rating: scale 0 to 100 (0 no effect, 100 complete control)
Outline: as §1

[13] = test system: field poppy (Papaver rhoeas); settings: for Field Poppy plant response rating: scale 0 to 100 (0 no effect, 100 complete control)
Outline: as §1

[14] = 125 g ai/ha, scale 0 to 100 (0 no effect, 100 complete control)

## FC(F)(F)CCCCc1c(Cl)cccc1Oc1ncc(Cl)cn1 [Compound 137]
[1]; 16 g ai/ha, scale of 0 to 100
  Plant response rating, Mustard, Wild: 100
[1]; 31 g ai/ha, scale 0 to 100
  Plant response rating, Mustard, Wild: 85
[1]; 62 g ai/ha
  Mustard, Wild plant response rating: 100
[1]; 125 g ai/ha
  Mustard, Wild plant response rating: 100
[2]; 16 g ai/ha, scale of 0 to 100
  Plant response rating, Geranium, Cutleaf: 10
[2]; 31 g ai/ha, scale 0 to 100
  Plant response rating, Geranium, Cutleaf: 25
[2]; 62 g ai/ha
  Geranium, Cutleaf plant response rating: 30
[2]; 125 g ai/ha
  Geranium, Cutleaf plant response rating: 35
[3]; 16 g ai/ha, scale of 0 to 100
  Plant response rating, Poinsettia, Wild: 15
[3]; 31 g ai/ha, scale 0 to 100
  Plant response rating, Poinsettia, Wild: 65
[3]; 62 g ai/ha
  Poinsettia, Wild plant response rating: 65
[3]; 125 g ai/ha
  Poinsettia, Wild plant response rating: 75
[4]; 16 g ai/ha, scale of 0 to 100
  Plant response rating, Field Violet: 65
[4]; 31 g ai/ha, scale 0 to 100
  Plant response rating, Field Violet: 70
[4]; 62 g ai/ha
  Field Violet plant response rating: 85
[4]; 125 g ai/ha
  Field Violet plant response rating: 85
[5]; 16 g ai/ha, scale of 0 to 100
  Plant response rating, Surinam Grass: 5
[5]; 31 g ai/ha, scale 0 to 100
  Plant response rating, Surinam Grass: 10
[5]; [14]
  Surinam Grass plant response rating: 20
[6]; 16 g ai/ha, scale of 0 to 100
  Plant response rating, Johnsongrass: 5
[6]; 31 g ai/ha, scale 0 to 100
  Plant response rating, Johnsongrass: 10
[6]; 62 g ai/ha
  Johnsongrass plant response rating: 10
[6]; 125 g ai/ha
  Johnsongrass plant response rating: 25
[7]; 16 g ai/ha, scale of 0 to 100
  Plant response rating, Canada Thistle: 75
[7]; 31 g ai/ha, scale 0 to 100
  Plant response rating, Canada Thistle: 85
[7]; 62 g ai/ha
  Canada Thistle plant response rating: 98
[7]; 125 g ai/ha
  Canada Thistle plant response rating: 100
[8]; 16 g ai/ha, scale of 0 to 100
  Plant response rating, Speedwell: 75
[8]; 31 g ai/ha, scale 0 to 100
  Plant response rating, Speedwell: 80
[8]; 62 g ai/ha
  Speedwell plant response rating: 100
[8]; 125 g ai/ha
  Speedwell plant response rating: 100
[9]; 16 g ai/ha, scale of 0 to 100
  Plant response rating, Buckwheat, Wild: 70
[9]; 31 g ai/ha, scale 0 to 100
  Plant response rating, Buckwheat, Wild: 75
[9]; 62 g ai/ha
  Buckwheat, Wild plant response rating: 98
[9]; 125 g ai/ha
  Buckwheat, Wild plant response rating: 90
[10]; 16 g ai/ha, scale of 0 to 100
  Plant response rating, Windgrass: 10
[10]; 31 g ai/ha, scale 0 to 100
  Plant response rating, Windgrass: 10
[10]; [14]
  Windgrass plant response rating: 45
[11]; 16 g ai/ha, scale of 0 to 100
  Plant response rating, Pigweed, Palmer: 20
[11]; 31 g ai/ha, scale 0 to 100
  Plant response rating, Pigweed, Palmer: 45
[11]; 62 g ai/ha
  Pigweed, Palmer plant response rating: 50
[11]; 125 g ai/ha
  Pigweed, Palmer plant response rating: 70
[12]; 16 g ai/ha, scale of 0 to 100
  Plant response rating, Nightshade: 60
[12]; 31 g ai/ha, scale 0 to 100
  Plant response rating, Nightshade: 80
[12]; 62 g ai/ha
  Nightshade plant response rating: 90
[12]; 125 g ai/ha
  Nightshade plant response rating: 90
[13]; 16 g ai/ha, scale of 0 to 100
  Plant response rating, Field Poppy: 85
[13]; 31 g ai/ha, scale 0 to 100
  Plant response rating, Field Poppy: 95
[13]; 62 g ai/ha
  Field Poppy plant response rating: 100
[13]; 125 g ai/ha
  Field Poppy plant response rating: 100
